Measurements from article PMC11538602, “Substrate binding and catalytic mechanism of UDP-α-D-galactofuranose: β-galactofuranoside β-(1→5)-galactofuranosyltransferase GfsA” (PNAS Nexus, 2024).

Legend:
[1] = target: T1, GfsA (Aspergillus fumigatus, UniProt B0YDN6); test: X-ray crystal structure, […] A; assay type: binding; conditions: crystal with UDP and Mn2+ soaked with 50 mM pNP-Galf, pNP group not resolved, only Galf modelled; acceptor site, D335 and D360
T1 construct: gene AFUB_096220; soluble catalytic domain, residues 43-537 without transmembrane segment; N-terminal 6xHis-tag (pET15b); E. coli Rosetta-gami B (DE3); 58 kDa; homodimer (120 kDa by gel filtration); GT31

[2] = target: GfsA (UDP-α-D-galactofuranose: β-galactofuranoside β-(1→5)-galactofuranosyltransferase) from Aspergillus fumigatus, soluble catalytic domain, residues 43–537 (Aspergillus fumigatus); test: SEC; gel filtration chromatography of GfsA purified with Ni-agarose; broad single peak, estimated 120 kDa against 58 kDa for the monomer

Row | Molecule | X-ray crystal structure, 2.37 A [1] | stoichiometry N [2]
1 | OC[C@@H](O)[C@@H]1O[C@@H](O)[C@H](O)[C@H]1O [Galf] | Galf, was present within the depression and hydrogen bonded with D335 and D360 | –
2 | GfsA (UDP-α-D-galactofuranose: β-galactofuranoside β-(1→5)-galactofuranosyltransferase) from Aspergillus fumigatus, soluble catalytic domain, residues 43–537 (enzyme) | – | 2
